Patent US7927821B2, “Methods of screening for compounds which bind G protein-coupled receptors” (Takeda Pharmaceutical Company Limited, priority 2004, dated 2011)

Key:
[1] = molecular target: TGR25 (Homo sapiens, UniProt Q86Y34); test: SRE-luciferase reporter assay in HeLa cells transiently expressing TGR25; type: cell-based; conditions: for luciferase activity in the TGR25-expressed cells (in words): 20 μM
[2] = test system: pAKKO-111H-transfected cells (control); test: SRE-luciferase reporter assay in pAKKO-111H-transfected HeLa cells for control (no receptor); conditions: 2 μM
[3] = test system: HL-60; test: Differentiation of HL-60 cell line into neutrophil-like cells (CD11b/Mac-1, flow cytometry); type: cell-based, human; conditions: co-presence of 1.25% DMSO and AM251 (10 μM), 4 days
Text: Human leukocyte cell line (human acute promyelocytic leukemia cell-derived) HL-60 is known to differentiate into neutrophil-like cells by treatment with DMSO (dimethyl sulfoxide) (Blood, 70, 1233-1244 (1987)). Gene expression analysis based on EXAMPLE 3 confirmed the expression of the TGR25 in the cell line. Accordingly, the action of AM251 as an agonist of the TGR25 for differentiation of the cells was examined.
After HL-60 cells in the growth phase were suspended in 10% fetal calf serum-containing RPMI 1640 medium, the cells were plated on a 12-well tissue culture plate (Becton Dickinson Japan) in 5×10^4 cells/well. […] Degree of cell differentiation was analyzed using a fluorescence-labeled antibody (PE-anti-human CD11b/Mac-1, Becton Dickinson Japan) on a flow cytometry (BD FACSVantage™, Becton Dickinson Japan), in terms of the expression level of a differentiation marker or cell surface antigen CD11b/Mac-1 as an indicator.

Chain of TGR25 (Q86Y34 21-549): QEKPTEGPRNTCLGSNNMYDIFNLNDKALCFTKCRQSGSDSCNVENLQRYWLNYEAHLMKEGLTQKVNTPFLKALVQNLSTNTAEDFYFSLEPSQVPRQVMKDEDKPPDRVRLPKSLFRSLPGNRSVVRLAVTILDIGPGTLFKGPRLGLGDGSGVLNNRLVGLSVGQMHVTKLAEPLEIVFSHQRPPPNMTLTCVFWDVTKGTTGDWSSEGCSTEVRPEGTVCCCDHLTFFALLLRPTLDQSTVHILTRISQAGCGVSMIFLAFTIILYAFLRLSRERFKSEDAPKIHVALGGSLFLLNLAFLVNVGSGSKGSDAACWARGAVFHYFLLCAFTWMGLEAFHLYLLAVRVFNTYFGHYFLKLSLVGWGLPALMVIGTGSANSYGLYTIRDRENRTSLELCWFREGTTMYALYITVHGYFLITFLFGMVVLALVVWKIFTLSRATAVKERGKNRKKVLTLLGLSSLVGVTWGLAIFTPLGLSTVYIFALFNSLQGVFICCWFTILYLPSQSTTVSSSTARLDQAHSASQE

Increase of Luciferase Activity in TGR25-Expressed Cells by AM281 (cps): TGR25 ([1]; AM281 20 μM, 4 hours, HeLa cells, 0 μM gave 6113) [cps]	Structure (SMILES)	luciferase activity in the TGR25 expression cells (in words) ([1]; 2 μM)	Increased luciferase activity (cps) in the TGR25 expression cells by AM251: TGR25 ([1]; AM251 2 μM, 4 hours, HeLa cells, 0 μM gave 7527) [cps]	luciferase activity in the pAKKO-111H-transfected cells for control (in words) [2]	differentiation of HL-60 into neutrophil-like cells [3]	expression level of CD11b/Mac-1 (differentiation marker) ([3]; versus DMSO alone)	luciferase activity in the TGR25-expressed cells (in words) [1]	Increase of Luciferase Activity in TGR25-Expressed Cells by DH97 (cps): TGR25 ([1]; DH97 20 μM, 4 hours, HeLa cells, 0 μM gave 2642) [cps]
–	Cc1c(C(=O)NN2CCCCC2)nn(-c2ccc(Cl)cc2Cl)c1-c1ccc(I)cc1 [AM251, 1-(2,4-dichlorophenyl)-5-(4-iodophenyl)-4-methyl-N-piperidin-1-yl-1H-pyrazole-3-carboxamide]	increased luciferase activity was detected	17897	any significant increase in the activity was not detected	acts promotively	further increased	–	–
9279	Cc1c(C(=O)NN2CCOCC2)nn(-c2ccc(Cl)cc2Cl)c1-c1ccc(I)cc1 [AM281, 1-(2,4-dichlorophenyl)-5-(4-iodophenyl)-4-methyl-N-morpholin-4-yl-1H-pyrazole-3-carboxamide]	–	–	–	–	–	the luciferase activity increased	–
–	CCCCC(=O)NCCc1c(Cc2ccccc2)[nH]c2ccccc12 [DH97, N-[2-(2-benzyl-1H-indol-3-yl)ethyl]pentanamide]	–	–	–	–	–	the luciferase activity increased	5674
